Measured values as given in the OligoGym collection.
Oligonucleotides are given in HELM: sugar(base)linkage, 5' to 3'; d 2'-deoxyribose, r ribose, m 2'-O-methylribose, p phosphate. ss, as = sense and antisense strand

These substances were tested against TMEM63B (assay: reporter assay of Huesken 2005). Conditions: siRNA.
Note: test concentration or dose not given here.

Substance	normalised inhibition (eCFP-eYFP dual reporter)
RNA1{r(G)p.r(C)p.r(A)p.r(C)p.r(A)p.r(A)p.r(G)p.r(U)p.r(G)p.r(C)p.r(U)p.r(A)p.r(C)p.r(A)p.r(C)p.r(U)p.r(U)p.r(U)p.r(C)p.d(T)p.d(T)}|RNA2{r(G)p.r(A)p.r(A)p.r(A)p.r(G)p.r(U)p.r(G)p.r(U)p.r(A)p.r(G)p.r(C)p.r(A)p.r(C)p.r(U)p.r(U)p.r(G)p.r(U)p.r(G)p.r(C)p.d(A)p.d(T)}$$$RNA1{StrandType:ss}|RNA2{StrandType:as}$	83.6%
RNA1{r(G)p.r(C)p.r(C)p.r(U)p.r(A)p.r(C)p.r(G)p.r(C)p.r(C)p.r(U)p.r(G)p.r(G)p.r(A)p.r(U)p.r(G)p.r(A)p.r(U)p.r(G)p.r(U)p.d(T)p.d(T)}|RNA2{r(A)p.r(C)p.r(A)p.r(U)p.r(C)p.r(A)p.r(U)p.r(C)p.r(C)p.r(A)p.r(G)p.r(G)p.r(C)p.r(G)p.r(U)p.r(A)p.r(G)p.r(G)p.r(C)p.d(T)p.d(G)}$$$RNA1{StrandType:ss}|RNA2{StrandType:as}$	72.3%
RNA1{r(C)p.r(A)p.r(G)p.r(G)p.r(C)p.r(C)p.r(U)p.r(G)p.r(C)p.r(U)p.r(C)p.r(A)p.r(U)p.r(G)p.r(U)p.r(A)p.r(C)p.r(A)p.r(U)p.d(T)p.d(T)}|RNA2{r(A)p.r(U)p.r(G)p.r(U)p.r(A)p.r(C)p.r(A)p.r(U)p.r(G)p.r(A)p.r(G)p.r(C)p.r(A)p.r(G)p.r(G)p.r(C)p.r(C)p.r(U)p.r(G)p.d(G)p.d(G)}$$$RNA1{StrandType:ss}|RNA2{StrandType:as}$	72.1%
RNA1{r(C)p.r(A)p.r(C)p.r(C)p.r(C)p.r(A)p.r(G)p.r(U)p.r(U)p.r(C)p.r(U)p.r(U)p.r(C)p.r(C)p.r(C)p.r(C)p.r(A)p.r(C)p.r(C)p.d(T)p.d(T)}|RNA2{r(G)p.r(G)p.r(U)p.r(G)p.r(G)p.r(G)p.r(G)p.r(A)p.r(A)p.r(G)p.r(A)p.r(A)p.r(C)p.r(U)p.r(G)p.r(G)p.r(G)p.r(U)p.r(G)p.d(A)p.d(T)}$$$RNA1{StrandType:ss}|RNA2{StrandType:as}$	56.1%
RNA1{r(A)p.r(A)p.r(C)p.r(G)p.r(U)p.r(G)p.r(C)p.r(C)p.r(U)p.r(A)p.r(C)p.r(C)p.r(A)p.r(U)p.r(G)p.r(A)p.r(U)p.r(C)p.r(A)p.d(T)p.d(T)}|RNA2{r(U)p.r(G)p.r(A)p.r(U)p.r(C)p.r(A)p.r(U)p.r(G)p.r(G)p.r(U)p.r(A)p.r(G)p.r(G)p.r(C)p.r(A)p.r(C)p.r(G)p.r(U)p.r(U)p.d(C)p.d(T)}$$$RNA1{StrandType:ss}|RNA2{StrandType:as}$	80.1%
RNA1{r(U)p.r(C)p.r(A)p.r(G)p.r(A)p.r(G)p.r(G)p.r(U)p.r(G)p.r(G)p.r(A)p.r(C)p.r(G)p.r(G)p.r(G)p.r(G)p.r(A)p.r(U)p.r(G)p.d(T)p.d(T)}|RNA2{r(C)p.r(A)p.r(U)p.r(C)p.r(C)p.r(C)p.r(C)p.r(G)p.r(U)p.r(C)p.r(C)p.r(A)p.r(C)p.r(C)p.r(U)p.r(C)p.r(U)p.r(G)p.r(A)p.d(G)p.d(T)}$$$RNA1{StrandType:ss}|RNA2{StrandType:as}$	29.5%
RNA1{r(C)p.r(U)p.r(C)p.r(U)p.r(C)p.r(C)p.r(G)p.r(U)p.r(A)p.r(G)p.r(G)p.r(C)p.r(A)p.r(U)p.r(C)p.r(G)p.r(U)p.r(G)p.r(C)p.d(T)p.d(T)}|RNA2{r(G)p.r(C)p.r(A)p.r(C)p.r(G)p.r(A)p.r(U)p.r(G)p.r(C)p.r(C)p.r(U)p.r(A)p.r(C)p.r(G)p.r(G)p.r(A)p.r(G)p.r(A)p.r(G)p.d(G)p.d(A)}$$$RNA1{StrandType:ss}|RNA2{StrandType:as}$	75.8%
RNA1{r(U)p.r(C)p.r(U)p.r(G)p.r(G)p.r(G)p.r(G)p.r(A)p.r(G)p.r(A)p.r(A)p.r(C)p.r(A)p.r(G)p.r(G)p.r(A)p.r(C)p.r(A)p.r(A)p.d(T)p.d(T)}|RNA2{r(U)p.r(U)p.r(G)p.r(U)p.r(C)p.r(C)p.r(U)p.r(G)p.r(U)p.r(U)p.r(C)p.r(U)p.r(C)p.r(C)p.r(C)p.r(C)p.r(A)p.r(G)p.r(A)p.d(G)p.d(C)}$$$RNA1{StrandType:ss}|RNA2{StrandType:as}$	68%
RNA1{r(C)p.r(C)p.r(C)p.r(A)p.r(U)p.r(C)p.r(A)p.r(U)p.r(C)p.r(A)p.r(C)p.r(C)p.r(C)p.r(A)p.r(G)p.r(U)p.r(U)p.r(C)p.r(U)p.d(T)p.d(T)}|RNA2{r(A)p.r(G)p.r(A)p.r(A)p.r(C)p.r(U)p.r(G)p.r(G)p.r(G)p.r(U)p.r(G)p.r(A)p.r(U)p.r(G)p.r(A)p.r(U)p.r(G)p.r(G)p.r(G)p.d(G)p.d(T)}$$$RNA1{StrandType:ss}|RNA2{StrandType:as}$	68.7%
RNA1{r(U)p.r(G)p.r(C)p.r(U)p.r(G)p.r(C)p.r(C)p.r(U)p.r(G)p.r(U)p.r(C)p.r(A)p.r(A)p.r(C)p.r(U)p.r(U)p.r(C)p.r(U)p.r(C)p.d(T)p.d(T)}|RNA2{r(G)p.r(A)p.r(G)p.r(A)p.r(A)p.r(G)p.r(U)p.r(U)p.r(G)p.r(A)p.r(C)p.r(A)p.r(G)p.r(G)p.r(C)p.r(A)p.r(G)p.r(C)p.r(A)p.d(C)p.d(G)}$$$RNA1{StrandType:ss}|RNA2{StrandType:as}$	60.5%
RNA1{r(A)p.r(A)p.r(C)p.r(C)p.r(A)p.r(C)p.r(C)p.r(A)p.r(U)p.r(U)p.r(G)p.r(C)p.r(C)p.r(A)p.r(A)p.r(C)p.r(U)p.r(U)p.r(G)p.d(T)p.d(T)}|RNA2{r(C)p.r(A)p.r(A)p.r(G)p.r(U)p.r(U)p.r(G)p.r(G)p.r(C)p.r(A)p.r(A)p.r(U)p.r(G)p.r(G)p.r(U)p.r(G)p.r(G)p.r(U)p.r(U)p.d(C)p.d(T)}$$$RNA1{StrandType:ss}|RNA2{StrandType:as}$	34.2%
RNA1{r(C)p.r(U)p.r(C)p.r(U)p.r(A)p.r(C)p.r(U)p.r(A)p.r(C)p.r(G)p.r(C)p.r(C)p.r(U)p.r(A)p.r(C)p.r(C)p.r(U)p.r(G)p.r(C)p.d(T)p.d(T)}|RNA2{r(G)p.r(C)p.r(A)p.r(G)p.r(G)p.r(U)p.r(A)p.r(G)p.r(G)p.r(C)p.r(G)p.r(U)p.r(A)p.r(G)p.r(U)p.r(A)p.r(G)p.r(A)p.r(G)p.d(A)p.d(T)}$$$RNA1{StrandType:ss}|RNA2{StrandType:as}$	56.4%

These substances were tested against Mmp7 (rat) (assay: reporter assay of Huesken 2005). Conditions: siRNA.

Substance	normalised inhibition (eCFP-eYFP dual reporter)
RNA1{r(G)p.r(A)p.r(G)p.r(G)p.r(G)p.r(A)p.r(A)p.r(A)p.r(U)p.r(G)p.r(C)p.r(A)p.r(G)p.r(A)p.r(A)p.r(G)p.r(U)p.r(U)p.r(C)p.d(T)p.d(T)}|RNA2{r(G)p.r(A)p.r(A)p.r(C)p.r(U)p.r(U)p.r(C)p.r(U)p.r(G)p.r(C)p.r(A)p.r(U)p.r(U)p.r(U)p.r(C)p.r(C)p.r(C)p.r(U)p.r(C)p.d(A)p.d(G)}$$$RNA1{StrandType:ss}|RNA2{StrandType:as}$	97.5%
RNA1{r(G)p.r(C)p.r(C)p.r(A)p.r(C)p.r(U)p.r(C)p.r(A)p.r(U)p.r(G)p.r(A)p.r(A)p.r(C)p.r(U)p.r(U)p.r(G)p.r(G)p.r(C)p.r(C)p.d(T)p.d(T)}|RNA2{r(G)p.r(G)p.r(C)p.r(C)p.r(A)p.r(A)p.r(G)p.r(U)p.r(U)p.r(C)p.r(A)p.r(U)p.r(G)p.r(A)p.r(G)p.r(U)p.r(G)p.r(G)p.r(C)p.d(A)p.d(A)}$$$RNA1{StrandType:ss}|RNA2{StrandType:as}$	62.2%
